Test results published in US11667602B2, “Compounds and their use” (AstraZeneca AB, priority 2020, dated 2023).
≈ marks a conversion by molar mass, not a printed value. Read-outs that look alike come from different tables or passages of the source.

What was measured:
[1] = Rat Hepatocyte Stability (Test E); format: in vitro ADME; details: geometric mean if run multiple times
In short: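 Run per the published AstraZeneca-type rat hepatocyte stability protocol (Wernevik et al. panel). Values are mean intrinsic clearance, Clint in μl/min/10^6 cells; geometric mean used for repeated runs.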

[2] = Human Plasma Protein Binding (Test B); format: in vitro ADME; details: fraction unbound (fu)
In short: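 Human plasma protein binding run per the published Wernevik et al. (2020) integrated DMPK panel protocol. Values are fraction unbound (fu, % free); repeat runs averaged arithmetically.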

Solubility (Test F) = format: physicochemical; details: arithmetic mean if run multiple times
Procedure: The assay was conducted according to the Solubility Assay described in pages 164-167 of Wernevik, J. et al., “A Fully Integrated Assay Panel for Early Drug Metabolism and Pharmacokinetics Profiling”, Assay and Drug Development Technologies, 2020, 18(4), 157-179. Data are reported in Table 36 as solubility ([…]. Where the assay was run multiple times for the same compound, the arithmetic mean is reported.

human RXFP1 = target: T1, human RXFP1 (Homo sapiens, UniProt Q9HBX9); assay: RXFP1 Hu cAMP (Test A); format: cell-based; parameters: expressed in transfected cells; host or cells: Jump-In T-REx CHO-K1 cells (ThermoFisher), induced with 10 ng/ml doxycycline for 24 h
T1 sequence (Q9HBX9 1-757): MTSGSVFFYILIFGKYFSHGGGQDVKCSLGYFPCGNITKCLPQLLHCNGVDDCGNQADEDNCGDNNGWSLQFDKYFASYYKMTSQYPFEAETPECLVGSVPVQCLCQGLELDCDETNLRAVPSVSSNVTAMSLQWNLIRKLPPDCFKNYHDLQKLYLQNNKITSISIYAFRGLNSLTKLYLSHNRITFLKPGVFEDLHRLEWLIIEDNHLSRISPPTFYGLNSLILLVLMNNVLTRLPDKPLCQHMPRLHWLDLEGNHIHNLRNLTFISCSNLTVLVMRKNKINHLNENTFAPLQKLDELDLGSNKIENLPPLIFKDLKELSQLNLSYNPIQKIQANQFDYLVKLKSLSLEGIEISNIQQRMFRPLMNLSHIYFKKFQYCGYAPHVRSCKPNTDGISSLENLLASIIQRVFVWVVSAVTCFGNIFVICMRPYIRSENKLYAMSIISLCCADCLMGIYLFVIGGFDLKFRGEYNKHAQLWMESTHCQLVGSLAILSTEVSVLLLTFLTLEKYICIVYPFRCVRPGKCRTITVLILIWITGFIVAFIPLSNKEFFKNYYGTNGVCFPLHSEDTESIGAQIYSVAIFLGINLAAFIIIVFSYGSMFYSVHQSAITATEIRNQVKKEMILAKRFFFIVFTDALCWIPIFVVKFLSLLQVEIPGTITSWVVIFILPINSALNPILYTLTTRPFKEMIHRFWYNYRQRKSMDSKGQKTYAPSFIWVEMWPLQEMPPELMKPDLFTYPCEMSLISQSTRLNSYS
In short: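 Read-out is HTRF signal, inversely proportional to cAMP, converted to cAMP amount by standard curve. Stimulation occurred in inducible CHO-K1 cells expressing the human receptor with phosphodiesterases blocked by 0.5 mM IBMX.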

[3] = Human Liver Microsomal Stability (Test C); format: in vitro ADME
In short: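 Human liver microsome incubation per the Wernevik et al. integrated DMPK panel protocol. Intrinsic clearance reported as CLint in μl/min/mg protein, averaged arithmetically over repeat runs.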

[4] = RXFP1 Hu cAMP, read-out: Test A EC50

hepatocyte CLint ([1]; rat, hepatocytes) | Test B Human Plasma Protein Binding (% free) [2] | solubility (Solubility (Test F)) | EC50 (human RXFP1; [4]) | microsomal CLint ([3]; human, liver microsomes) | Test A Sinf (human RXFP1; RXFP1 Hu cAMP) | Compound | hepatocyte CLint ([1]; rat hepatocytes) | EC50 (human RXFP1; Test A EC50, RXFP1 Hu cAMP) | microsomal CLint ([3]; human liver microsomes)
28 µL/min/1e6 cells | 20 % free | 990 µM (≈ 612 µg/mL) | > 3.5 µM | < 3 µL/min/mg | 100% | COc1cc(C#N)c(O[C@H]2CC[C@@](C)(C(=O)O)CC2)cc1C(=O)N[C@@H]1[C@H]2CC[C@H](C2)[C@@H]1C(=O)NCC1(O)CCC(F)(F)CC1 [Example 101] | – | – | –
16 µL/min/1e6 cells | 24 % free | 920 µM (≈ 518 µg/mL) | 0.37 µM | < 3 µL/min/mg | 103% | COc1cc(C#N)c(O[C@H]2CC[C@@](C)(C(=O)O)CC2)cc1C(=O)N[C@@H]1[C@H]2CC[C@H](C2)[C@@H]1C(=O)NCC1(C#N)CCC1 [Example 93] | – | – | –
17 µL/min/1e6 cells | 0.19 % free | < 7.3 µM | > 9.4 µM | 43 µL/min/mg | – | COc1cc(F)c(O[C@H]2CC[C@@](C)(C(=O)O)CC2)cc1C(=O)Nc1nn2cccnc2c1C(=O)NCC1(C)CCC1 [Example 217, (1s,4s)-4-(2-Fluoro-4-methoxy-5-((3-(((1-methylcyclobutyl)methyl)carbamoyl)pyrazolo[1,5-a]pyrimidin-2-yl)carbamoyl)phenoxy)-1-methylcyclohexane-1-carboxylic acid] | – | – | –
48 µL/min/1e6 cells | 2.5 % free | 220 µM (≈ 131 µg/mL) | 0.0048 µM | > 300 µL/min/mg | 125% | COc1cc(C#N)c(O[C@H]2CC[C@@](C)(C(=O)O)CC2)cc1C(=O)N[C@@H]1[C@H]2CC[C@H](C2)[C@@H]1C(=O)NCC1(C)CCCCCC1 [Example 105] | – | – | –
22 µL/min/1e6 cells | <1.2 % free | 13 µM (≈ 8.81 µg/mL) | 0.37 µM | 18 µL/min/mg | 106% | COc1cc(F)c(-c2ccc(C[C@@H](N)C(=O)O)cc2)cc1C(=O)N[C@@H]1[C@H]2CC[C@H](C2)[C@@H]1C(=O)Nc1cccc(S(=O)(=O)C(F)(F)F)c1 [Example 291, (R)-2-Amino-3-(2′-fluoro-4′-methoxy-5′-(((1S,2R,3S,4R)-3-((3-((trifluoromethyl)sulfonyl)phenyl)carbamoyl)bicyclo[2.2.1]heptan-2-yl)carbamoyl)-[1,1′-biphenyl]-4-yl)propanoic acid] | – | – | –
83 µL/min/1e6 cells | 0.37 % free | 270 µM (≈ 176 µg/mL) | 0.2 µM | 48 µL/min/mg | 108% | COc1cc(F)c(O[C@H]2CC[C@@H](C(=O)O)CC2)cc1C(=O)N[C@@H]1[C@H]2CC[C@H](C2)[C@@H]1C(=O)Nc1cccc(I)c1 [Example 185] | – | – | –
27 µL/min/1e6 cells | 1.8 % free | 770 µM (≈ 457 µg/mL) | 0.51 µM | 18 µL/min/mg | 83% | COc1cc(F)c(O[C@H]2CC[C@@H](C(=O)O)CC2)cc1C(=O)N[C@@H]1[C@H]2CC[C@H](C2)[C@@H]1C(=O)Nc1cc(C(F)(F)F)ccn1 [Example 14, (1S,4s)-4-(2-Fluoro-4-methoxy-5-(((1S,2R,3S,4R)-3-((4-(trifluoromethyl)pyridin-2-yl)carbamoyl)bicyclo[2.2.1]heptan-2-yl)carbamoyl)phenoxy)cyclohexane-1-carboxylic acid] | – | – | –

More lines, now with the values behind:

Compound | hepatocyte CLint ([1]; rat, hepatocytes) | Test B Human Plasma Protein Binding (% free) [2] | solubility (Solubility (Test F)) | EC50 (human RXFP1; [4]) | microsomal CLint ([3]; human, liver microsomes) | Test A Sinf (human RXFP1; RXFP1 Hu cAMP) | hepatocyte CLint ([1]; rat hepatocytes) | EC50 (human RXFP1; Test A EC50, RXFP1 Hu cAMP) | microsomal CLint ([3]; human liver microsomes)
COc1cc(C#N)c(O[C@H]2CC[C@@](C)(C(=O)O)CC2)cc1C(=O)N[C@@H]1[C@H]2CC[C@H](C2)[C@@H]1C(=O)N[C@]12CC3CC(C[C@@](O)(C3)C1)C2 [Example 113] | 30 µL/min/1e6 cells | 28 % free | 950 µM (≈ 589 µg/mL) | > 9.4 µM | 11 µL/min/mg | – | – | – | –
O=C(N[C@@H]1[C@H]2CC[C@H](C2)[C@@H]1C(=O)Nc1cccc(S(=O)(=O)C(F)(F)F)c1)c1cc(O[C@H]2CC[C@@H](C(=O)O)CC2)c(F)cc1F [Example 430] | 22 µL/min/1e6 cells | 3 % free | 760 µM (≈ 490 µg/mL) | > 0.23 µM | 61 µL/min/mg | 101% | – | – | –
COc1cc(NC(=O)[C@H]2[C@@H]3CC[C@@H](C3)[C@H]2NC(=O)c2cc(O[C@H]3CC[C@@H](C(=O)O)CC3)c(F)cc2OC)cc(C(F)(F)F)c1 [Example 194] | 24 µL/min/1e6 cells | 0.53 % free | 530 µM (≈ 330 µg/mL) | 0.47 µM | 31 µL/min/mg | 99% | – | – | –
COc1cc(F)c(O[C@H]2CC[C@@](C)(C(=O)O)CC2)cc1C(=O)N[C@@H]1[C@H]2CC[C@H](C2)[C@@H]1C(=O)NCC1(C)CC1 [Example 41] | 21 µL/min/1e6 cells | 8 % free | 820 µM (≈ 435 µg/mL) | > 5.5 µM | 8.9 µL/min/mg | 114% | – | – | –
COc1cc(C#N)c(O[C@H]2CC[C@@](C)(C(=O)O)CC2)cc1C(=O)N[C@@H]1[C@H]2CC[C@H](C2)[C@@H]1C(=O)NCC1CCC(C#N)CC1 (stereo partly shown) [Example 107] | 34 µL/min/1e6 cells | 26 % free | 1000 µM (≈ 591 µg/mL) | 8.3 µM | 7.9 µL/min/mg | 112% | – | – | –
COc1cc(F)c(-c2cccc(CCC(=O)O)c2)cc1C(=O)N[C@@H]1CCC[C@@H]1C(=O)Nc1cccc(S(=O)(=O)C(F)(F)F)c1 [Example 319] | 29 µL/min/1e6 cells | 0.44 % free | 380 µM (≈ 242 µg/mL) | 0.75 µM | 18 µL/min/mg | 79% | – | – | –
CCCCNC(=O)[C@H]1[C@@H]2CC[C@@H](C2)[C@H]1NC(=O)c1cc(O[C@H]2CC[C@@](C)(C(=O)O)CC2)c(C#N)cc1OC [Example 91] | 59 µL/min/1e6 cells | 5.9 % free | 830 µM (≈ 436 µg/mL) | 0.27 µM | 20 µL/min/mg | 114% | – | – | –
COc1cc(F)c(O[C@H]2CC[C@@H](C(=O)O)CC2)cc1C(=O)N[C@@H]1[C@H]2CC[C@H](C2)[C@@H]1C(=O)Nc1ccc(C#N)c(C(F)(F)F)c1 [Example 28] | – | 0.94 % free | 690 µM (≈ 426 µg/mL) | – | – | 96% | 51 µL/min/1e6 cells | 0.044 µM | 32 µL/min/mg
COc1cc(F)c(O[C@H]2CC[C@@H](C(=O)O)CC2)cc1C(=O)N[C@@H]1[C@H]2CC[C@H](C2)[C@@H]1C(=O)Nc1nccc(C(F)(F)F)n1 [Example 32] | 26 µL/min/1e6 cells | 13 % free | > 1000 µM | > 40 µM | 10 µL/min/mg | 100% | – | – | –
COc1cc(F)c(O[C@H]2CC[C@@H](C(=O)O)CC2)cc1C(=O)N[C@@H]1[C@H]2CC[C@H](C2)[C@@H]1C(=O)Nc1cc(F)c(F)c(F)c1 [Example 187] | 21 µL/min/1e6 cells | 0.41 % free | 580 µM (≈ 336 µg/mL) | 0.25 µM | 15 µL/min/mg | 105% | – | – | –
COc1ccc(O[C@H]2CC[C@@H](C(=O)O)CC2)cc1C(=O)N[C@@H]1[C@H]2CC[C@H](C2)[C@@H]1C(=O)Nc1cccc(S(=O)(=O)C(F)(F)F)c1 [Example 466, (1S,4s)-4-(4-Methoxy-3-(((1S,2R,3S,4R)-3-((3-((trifluoromethyl)sulfonyl)phenyl)carbamoyl)bicyclo[2.2.1]heptan-2-yl)carbamoyl)phenoxy)cyclohexane-1-carboxylic acid] | 29 µL/min/1e6 cells | 2.1 % free | > 1000 µM | 0.093 µM | 37 µL/min/mg | 106% | – | – | –
